Measured values published in patent US4547357A, “N-Hydroxyethylated 2,4,6-triiodoaminoisophthalic acid bistrihydroxybutylamides, their preparation and x-ray contrast media containing them” (priority 1981, dated 1985).
Read-outs that look alike come from different tables or passages of the source. Each block holds one compound with its values, some of them ahead of it.

Experiments:
[1] = Viscosity at 37° C., 300 mg I/ml; format: physicochemical
[2] = tested on: Rat; assay: Neural compatibility, rat, intracisternal ED50; format: in vivo
Excerpt: (§1) In Table I, the following compounds are compared with respect to neural and general compatibility: […]

[3] = tested on: Rat; assay: Neural compatibility, rat, pericerebral ED50; format: in vivo
Excerpt: as §1

[4] = Number of hydroxy groups per molecule; format: physicochemical
[5] = clinical experience; cited from earlier work
[6] = tested on: Mouse; assay: General compatibility, mouse LD50; format: in vivo; conditions: for Mouse LD50: General compatibility
Excerpt: as §1

[7] = Iodine content; format: physicochemical
[8] = tested on: Rat; assay: Neural compatibility, comparison in words; format: in vivo; conditions: data of Table I
Excerpt: as §1

[9] = Solubility in water; format: physicochemical; conditions: in 100 ml of water; read-out: Solubility (100 ml of water dissolves)

Structure (SMILES): CC(=O)Nc1c(I)c(C(=O)N[C@H]2C(O)O[C@H](CO)[C@@H](O)[C@@H]2O)c(I)c(N(C)C(C)=O)c1I (some centres unmarked) [B, Metrizamide]
- Viscosity [1]: 6.2 mPa · s
- Rat, intracisternal ED50 [2]: 48 mg I/kg
- Rat, pericerebral ED50 [3]: 62 mg I/kg
- Number of hydroxy groups/molecule [4]: 4
- side effects (in words) [5]: still are not devoid of side effects
- Mouse LD50 [6]: 14 g I/kg
- Iodine content [7]: 48%

Structure (SMILES): C[C@H](O)C(=O)Nc1c(I)c(C(=O)NC(CO)CO)c(I)c(C(=O)NC(CO)CO)c1I [C, Iopamidol]
- Viscosity [1]: 4.5 mPa · s
- Rat, intracisternal ED50 [2]: 116 mg I/kg
- Rat, pericerebral ED50 [3]: 154 mg I/kg
- Number of hydroxy groups/molecule [4]: 5
- side effects (in words) [5]: still are not devoid of side effects
- Mouse LD50 [6]: 15 g I/kg
- Iodine content [7]: 49%

Structure (SMILES): CC(=O)N(CC(O)CO)c1c(I)c(C(=O)NCC(O)CO)c(I)c(C(=O)NCC(O)CO)c1I (centres unmarked) [D, Iohexol]
- Viscosity [1]: 5.5 mPa · s
- Rat, intracisternal ED50 [2]: 67 mg I/kg
- Rat, pericerebral ED50 [3]: 83 mg I/kg
- Number of hydroxy groups/molecule [4]: 6
- side effects (in words) [5]: still are not devoid of side effects
- Mouse LD50 [6]: 15 g I/kg
- Iodine content [7]: 46%

Structure (SMILES): CC(=O)N(CCO)c1c(I)c(C(=O)NC(CO)C(O)CO)c(I)c(C(=O)NC(CO)C(O)CO)c1I (stereo not drawn) [Example 1, 5-[N-(2-Hydroxyethyl)acetylamino]-2,4,6-triiodoisophthalic acid bis(threo-1,3,4-trihydroxybut-2-yl)diamide]
- Viscosity ([1]; listed as A1): 5.8 mPa · s
- Rat, intracisternal ED50 [2]: 130 mg I/kg
- Rat, pericerebral ED50 ([3]; listed as A1): 171 mg I/kg
- Number of hydroxy groups/molecule [4]: 7
- neural compatibility (in words) [8]: superior to the comparison compounds
- Mouse LD50 ([6]; listed as A1): 17 g I/kg
- general compatibility (in words) ([6]; data of Table I): superior to the comparison compounds
- Iodine content [7]: 45%

Structure (SMILES): CC(=O)N(CCO)c1c(I)c(C(=O)NC(CO)C(O)CO)c(I)c(C(=O)NC(CO)C(O)CO)c1I (stereo not drawn) [Example 2, 5-[N-(2-Hydroxyethyl)acetylamino]-2,4,6-triiodoisophthalic acid bis(erythro-1,3,4-trihydroxybut-2-yl)diamide]
- Viscosity ([1]; listed as A2): 6.2 mPa · s
- Rat, pericerebral ED50 ([3]; listed as A2): 188 mg I/kg
- Mouse LD50 ([6]; listed as A2): 22 g I/kg
- solubility [9]: > 700 mg/mL

- solubility [9]: > 700 mg/mL
Structure (SMILES): CC(=O)N(CCO)c1c(I)c(C(=O)NC(CO)(CO)CO)c(I)c(C(=O)NC(CO)(CO)CO)c1I [Example 3, 5-[N-(2-Hydroxyethyl)acetylamino]-2,4,6-triiodo-isophthalic Acid Bis(1,1,1-trishydroxymethylmethyl)diamide]

- solubility [9]: > 700 mg/mL
Structure (SMILES): CC(=O)N(CCO)c1c(I)c(C(=O)NCC(O)C(O)CO)c(I)c(C(=O)NCC(O)C(O)CO)c1I (centres unmarked) [Example 4, 5-[N-(2-Hydroxyethyl)acetylamino]-2,4,6-triiodo-isophthalic Acid Bis(2,3,4-trihydroxybut-1-yl)-diamide]
